Test results as given in US7770577B2, “Methods and devices for treating lung dysfunction” (priority 2001, dated 2010).
Read-outs that look alike come from different tables or passages of the source.

What was measured:
[1] = system: CF airway epithelial cell cultures; assay: SCN− efflux in CF airway epithelial air-liquid interface cultures; format: cell-based, human; settings: for effect on SCN^− efflux: CF cells
Method: (§1) J. Respir. […] Experiments comparing non-CF and CF cells were performed with cultures grown simultaneously and matched in passage number, the number of cells plated, and days in culture. […] To initiate experiments, apical surfaces of the cultures were rapidly washed three times with Dulbecco's PBS (50 μl for 6.5 mm filters or 500 μl for 24 mm filters) containing 100 μM amiloride. Following a third wash, additional aliquots were placed on the apical surface for sequential 2 min incubations at 37° C. in humidified 5% CO2.
(§2) Bronchial epithelial cells were obtained from either CF or non-CF lungs at the time of transplant or organ donation. Cells were passaged twice (thereby de-differentiated) and then cultured at an air-liquid interface for re-differentiation. […] J. Respir. […] Following three rapid PBS washes of the apical surface, additional PBS aliquots were placed on the apical surface for sequential 2 min incubations. […] Airway epithelial cell cultures from three separate CF patients were compared to three non-CF control cultures.

human airway epithelia = assay: Apical H2O2 production by airway epithelial ALI cultures (fluorometric horseradish peroxidase micro-assay); format: cell-based
Method: Reverse transcription-polymerase chain reaction (RT-PCR) was performed with primers designed to detect any mammalian NADPH oxidase capable of producing H2O2 through superoxide intermediate.
Since the predicted molecular structure of Duox1 and 2 identified an intracellular loop containing 2 EF-hand calcium-binding motifs, the Ca^2+ stimulated H2O2 production was assessed. ALI cultures were stimulated for one hour with Thapsigargin (1 μM), an inhibitor of the endoplasmic reticulum calcium ATPase pump that increases intracellular Ca^2+. […] In this assay, the cells were incubated for one hour with either DPI alone or in combination with thapsigargin (1 μM).

P. aeruginosa [2] = system: P. aeruginosa
Method: (§3) Bacteria were collected in the stationary phase of growth and further diluted in LB broth to 5-6×10^4/ml. After adding glycerol to 15%, aliquots of bacteria were stored at −80° C.
(§4) Cultures of non-CF and CF airway epithelial cells were matched with regard to passage number, days in culture, and days at the air liquid interface. At least 24 h prior to the experiments, basolateral media of some cultures were supplemented with 100 μM KSCN. The apical surfaces of the cultures were washed with 0.25 ml PBS and the washes were pooled and stored at −20° C. […] Control experiments were performed using only PBS adjusted to pH 5.7. […] Mixtures were sampled immediately and 4 h after incubation at room temperature and CFU were determined by plating on LB Agar. Antibacterial activity was expressed as a ratio of CFU after 4 h to the starting CFU in the sample to control for slight differences in the starting number of bacteria.

[3] = system: Pseudomonas aeruginosa (ATCC 27853); assay: Antibacterial assay of LPO system components in PBS pH 5.7 (control experiments); format: cell-based; settings: 1.125 μg/ml LPO, 10^−5 M H2O2 or 5×10^−4 M SCN− added singly or in pairs
Method: as §3, §4

[4] = system: Pseudomonas aeruginosa (ATCC 27853); assay: LPO-dependent antibacterial activity of human airway secretions; format: cell-based
Method: Human airway secretions were obtained from intubated patients undergoing ambulatory outpatient elective surgery according to IRB approved protocols. Patients were selected for not having respiratory disease. Saline (3 ml) was injected into the tracheal tube and immediately suctioned into a trap. Recovered secretions were spun at 16,000 rpm for 20 min. at 4° C. The supernatant was aliquoted and stored at −80° C. for later analysis. Undiluted secretions were obtained from acutely (<24 h) intubated patients in the medical ICU who were intubated for reasons other than respiratory disease. Selected patients had no clinical signs of respiratory infection. Secretions were cleared by centrifugation (100,000×g, 30 min), aliquoted, and stored at −80° C.
as §3, §4
It is unlikely that H2O2 would continue to be produced in secretions after collection since its source is thought to be cellular in origin. For this reason, secretions were supplemented with 10^−5 M H2O2.

P. aeruginosa [5] = assay: LPO dependent killing with bovine milk LPO at pH 5.7, 6.2 and 6.8; format: cell-based, Pseudomonas aeruginosa; settings: dapsone 10^−3 M; salicyl hydroxamic acid 10^−4 M
Source text: (§5) Concentrations of the LPO system components were selected to be within the measured ranges in human airways.

Burkholderia cepacia = assay: as above; format: cell-based; settings: dapsone 10^−3 M; salicyl hydroxamic acid 10^−4 M
Source text: as §5

[6] = system: non-CF airway epithelial cell cultures; assay: SCN− efflux / apical accumulation in non-CF airway epithelial air-liquid interface cultures; format: cell-based, human
Method: as §1, §2

[7] = cited from earlier work
[8] = PBS pH 5.7, 4 h room temperature, H2O2 10^−5 M or dapsone 10^−3 M, mean±SE, n=6
[9] = long-term daily aerosol administration

O=S(=O)(O)c1cc(N=C=S)ccc1C=Cc1ccc(N=C=S)cc1S(=O)(=O)O [DIDS, 4,4′-diisothiocyanostilbene-2,2′disulphonic acid]
effect on SCN^− efflux [1]: neither glibenclamide nor DIDS had any effect

c1ccc2c(c1)[I+]c1ccccc1-2 [DPI, Diphenyleneiodonium]
apical H2O2 production (human airway epithelia; 1 μM DPI in combination with thapsigargin (1 μM), one hour): 45±19 H2O2 pmoles/hr

OO [H2O2, hydrogen peroxide]
antibacterial activity in culture washes (P. aeruginosa [2]; H2O2 10^−5 M alone or with LPO, washes from cells cultured without basolateral SCN−): did not alone or with LPO, give rise to any antibacterial activity
growth of bacteria [3]: not affected
cell growth (ratio of CFU after 4 h to starting CFU) [4, 8]: 1.9±0.3
cell growth (ratio of CFU after 4 h to starting CFU) ([4]; bacteria in airway secretions of six patients in presence of 10^−5 M H2O2, n=6): 0.98±0.16

N#CS [SCN^−, thiocyanate]
antibacterial activity in culture washes (P. aeruginosa [2]; LPO/H2O2 supplemented washes from CF cultures grown with basolateral SCN− (100 μM)): no detectable LPO-dependent effect
antibacterial activity in culture washes (P. aeruginosa [2]; LPO/H2O2 supplemented washes from non-CF cultures grown with basolateral SCN− (100 μM)): LPO-dependent killing of bacteria
antibacterial activity in culture washes (P. aeruginosa [2]; exogenous SCN− (0.5 mM) added to CF culture washes): generated antibacterial activity
antibacterial activity in culture washes (P. aeruginosa [2]; exogenous SCN− (0.5 mM) added to non-CF culture washes): increased the LPO dependent activity
growth of bacteria [3]: not affected

Nc1ccc(S(=O)(=O)c2ccc(N)cc2)cc1 [dapsone]
effect of peroxidase inhibitor on LPO system antibacterial activity (P. aeruginosa [5]): inhibited
effect of peroxidase inhibitor on LPO system antibacterial activity (Burkholderia cepacia): inhibited
cell growth (ratio of CFU after 4 h to starting CFU) [4, 8]: 1.9±0.3
cell growth (ratio of CFU after 4 h to starting CFU) ([4]; airway secretions with 10^−5 M H2O2 plus dapsone, n=6, p<0.05 vs no dapsone): 1.68±0.31

CCCC(=O)Nc1ncnc2c1ncn2[C@@H]1O[C@@H]2COP(=O)(O)O[C@H]2[C@H]1OC(=O)CCC [dibutryl cAMP]
SCN^− efflux after stimulation of PKA ([1]; CF cultures, dibutryl cAMP (0.5 mM) and forskolin (10 μM) together): did not
SCN^− efflux after stimulation of PKA ([6]; non-CF cultures, dibutryl cAMP (0.5 mM) and forskolin (10 μM) together): increase in efflux

COc1ccc(Cl)cc1C(=O)NCCc1ccc(S(=O)(=O)NC(=O)NC2CCCCC2)cc1 [glibenclamide]
effect on SCN^− efflux [1]: neither glibenclamide nor DIDS had any effect
reversibility of inhibition of SCN^− efflux ([6]; non-CF cells): reversible
block of PKA-stimulated and baseline SCN^− efflux ([6]; non-CF cells, glibenclamide 500 μM): blocked

CC(C)Cc1ccc(C(C)C(=O)O)cc1 (stereo not drawn) [ibuprofen]
rate of lung inflammation ([7]; children with CF, four-year study, high doses): reduced the rate of lung inflammation

C/C=C(/C)C(=O)O[C@H]1C(C)=C2[C@H]([C@@H]1OC(=O)CCCCCCC)[C@@](C)(OC(C)=O)C[C@H](OC(=O)CCC)[C@@]1(O)[C@H]2OC(=O)[C@@]1(C)O [thapsigargin, Thapsigargin]
apical H2O2 produced (human airway epithelia; ALI cultures stimulated one hour with thapsigargin 1 μM (baseline 59±16)): 128±17 H2O2 pmoles/hr

lactoperoxidase [LPO]
growth of bacteria [3]: not affected

B1: Pulmozyme®: mucus-thinning drug, a DNAse (recombinant human deoxyribonuclease) (protein, UniProt P24855 23-282, looked up)
Deoxyribonuclease-1: LKIAAFNIQTFGETKMSNATLVSYIVQILSRYDIALVQEVRDSHLTAVGKLLDNLNQDAPDTYHYVVSEPLGRNSYKERYLFVYRPDQVSAVDSYYYDDGCEPCGNDTFNREPAIVRFFSRFTEVREFAIVPLHAAPGDAVAEIDALYDVYLDVQEKWGLEDVMLMGDFNAGCSYVRPSQWSSIRLWTSPTFQWLIPDSADTTATPTHCAYDRIVVAGMLLRGAVVPDSALPFNFQAAYGLSDQLAQAISDHYPVEVMLK
lung function ([7]; clinical trials, people with CF): improved lung function
number of respiratory infections ([7]; clinical trials): reduced the number of respiratory infections
frequency of severe respiratory tract exacerbations [7, 9]: decrease the frequency of severe respiratory tract exacerbations
rate of decline in pulmonary function [7, 9]: slow the rate of decline in pulmonary function
